Test results published in patent EP0908457B1, “3-(1,2-benzisothiazol- and isoxazol-5-Y1)-2,4(1H,3H)-pyrimidinedione or thione and 3-(1,2-benzisothiazol- and isoxazol-5-y1)-4(3H)-pyrimidinone or thione herbicidal agents” (BASF AKTIENGESELLSCHAFT, priority 1997, dated 1999).

Tests used:
Cyperus iria [1] = assay: Postemergence weed control under flooded paddy conditions, CYPIR (Rice Flatsedge); format: in vivo; settings: rated three to four weeks after treatment
[2] = tested on: Cyperus serotinus, Rottb.; assay: Preemergence weed control under flooded paddy conditions, CYPSE (Flatsedge); format: in vivo; settings: for herbicidal effect rating, CYPSE: preemergence, rated three to four weeks after treatment; for CYPSE: preemergence weeds, herbicidal effect rating 0-9, three to four weeks after treatment; for herbicidal effect rating, CYPSE: meaning of each grade not given here
Cyperus iria [3] = assay: Preemergence weed control under flooded paddy conditions, CYPIR (Rice Flatsedge); format: in vivo; settings: flooded paddy; for herbicidal effect rating, CYPIR: preemergence, rated three to four weeks after treatment; for CYPIR: preemergence weeds, herbicidal effect rating 0-9, three to four weeks after treatment; for herbicidal effect rating, CYPIR: meaning of each grade not given here
[4] = tested on: Oryza sativa, (L.) Tebonnet; assay: Rice tolerance to post-transplant applications under flooded paddy conditions (Example 188), ORYSAT (Rice, Tebonnet); settings: rated three to four weeks after treatment
Sagittaria pygmaea, L. [5] = assay: Preemergence weed control under flooded paddy conditions, SAGPY (Arrowhead (Pygmaea)); format: in vivo; settings: flooded paddy; for herbicidal effect rating, SAGPY: preemergence, rated three to four weeks after treatment; for SAGPY: preemergence weeds, herbicidal effect rating 0-9, three to four weeks after treatment; for herbicidal effect rating, SAGPY: meaning of each grade not given here
[6] = tested on: Oryza sativa, (L.) Tebonnet; assay: Rice tolerance to post-transplant applications under flooded paddy conditions (Example 187), ORYSAT (Rice, Tebonnet); settings: for herbicidal effect rating, ORYSAT (rice tolerance): rated three to four weeks after treatment; for ORYSAT: herbicidal effect rating 0-9, three to four weeks after treatment
[7] = tested on: Monochoria vaginalis, Presl.; assay: Preemergence weed control under flooded paddy conditions, MOOVA (Monochoria); format: in vivo; settings: flooded paddy; for herbicidal effect rating, MOOVA: preemergence, rated three to four weeks after treatment; for MOOVA: preemergence weeds, herbicidal effect rating 0-9, three to four weeks after treatment; for herbicidal effect rating, MOOVA: meaning of each grade not given here
[8] = tested on: Echinochloa oryzoides (Ard.) Fritsch.; assay: Preemergence weed control under flooded paddy conditions, ECHORC (Watergrass (Calif.)); format: in vivo; settings: flooded paddy; for herbicidal effect rating, ECHORC: preemergence, rated three to four weeks after treatment; for ECHORC: preemergence weeds, herbicidal effect rating 0-9, three to four weeks after treatment; for herbicidal effect rating, ECHORC: meaning of each grade not given here
Sagittaria pygmaea, L. [9] = assay: Postemergence weed control under flooded paddy conditions, SAGPY (Arrowhead (Pygmaea)); format: in vivo; settings: rated three to four weeks after treatment
[10] = tested on: Echinochloa oryzoides (Ard.) Fritsch.; assay: Postemergence weed control under flooded paddy conditions, ECHORC (Watergrass (Calif.)); format: in vivo; settings: rated three to four weeks after treatment
[11] = tested on: Monochoria vaginalis, Presl.; assay: Postemergence weed control under flooded paddy conditions, MOOVA (Monochoria); format: in vivo; settings: rated three to four weeks after treatment
[12] = tested on: Cyperus serotinus, Rottb.; assay: Postemergence weed control under flooded paddy conditions, CYPSE (Flatsedge); format: in vivo; settings: rated three to four weeks after treatment

CCc1ccc(-c2nsc3ccc(-n4c(=O)cc(C(F)(F)F)n(C)c4=O)cc23)cc1 [Example 5, 3-[3-(p-Ethylphenyl)-1,2-benzisothiazol-5-yl]-1-methyl-6-(trifluoromethyl)-2,4(1H,3H)-pyrimidinedione]
herbicidal effect rating, CYPIR (Cyperus iria [1]; Rate 0.0313 kg/ha): 9.0
herbicidal effect rating, CYPIR (Cyperus iria [1]; Rate 0.0625 kg/ha): 9.0
herbicidal effect rating, CYPIR (Cyperus iria [1]; Rate 0.1250 kg/ha): 9.0
herbicidal effect rating, CYPIR (Cyperus iria [1]; Rate 0.2500 kg/ha): 9.0
herbicidal effect rating, CYPIR (Cyperus iria [1]; Rate 0.5000 kg/ha): 9.0
herbicidal effect rating, CYPSE ([2]; 0.0313 kg/ha): 0.0
herbicidal effect rating, CYPSE ([2]; 0.0625 kg/ha): 2.0
herbicidal effect rating, CYPSE ([2]; 0.1250 kg/ha): 6.0
herbicidal effect rating, CYPSE ([2]; 0.2500 kg/ha): 8.0
herbicidal effect rating, CYPSE ([2]; 0.5000 kg/ha): 7.0
herbicidal effect rating, CYPIR (Cyperus iria [3]; 0.0313 kg/ha): 9.0
herbicidal effect rating, CYPIR (Cyperus iria [3]; 0.0625 kg/ha): 9.0
herbicidal effect rating, CYPIR (Cyperus iria [3]; 0.1250 kg/ha): 9.0
herbicidal effect rating, CYPIR (Cyperus iria [3]; 0.2500 kg/ha): 9.0
herbicidal effect rating, CYPIR (Cyperus iria [3]; 0.5000 kg/ha): 9.0
herbicidal effect rating, ORYSAT (rice tolerance) ([4]; Rate 0.0313 kg/ha): 2.0
herbicidal effect rating, ORYSAT (rice tolerance) ([4]; Rate 0.0625 kg/ha): 2.0
herbicidal effect rating, ORYSAT (rice tolerance) ([4]; Rate 0.1250 kg/ha): 4.0
herbicidal effect rating, ORYSAT (rice tolerance) ([4]; Rate 0.2500 kg/ha): 6.0
herbicidal effect rating, ORYSAT (rice tolerance) ([4]; Rate 0.5000 kg/ha): 8.0
herbicidal effect rating, SAGPY (Sagittaria pygmaea, L. [5]; 0.0313 kg/ha): 0.0
herbicidal effect rating, SAGPY (Sagittaria pygmaea, L. [5]; 0.0625 kg/ha): 0.0
herbicidal effect rating, SAGPY (Sagittaria pygmaea, L. [5]; 0.1250 kg/ha): 2.0
herbicidal effect rating, SAGPY (Sagittaria pygmaea, L. [5]; 0.2500 kg/ha): 7.0
herbicidal effect rating, SAGPY (Sagittaria pygmaea, L. [5]; 0.5000 kg/ha): 7.0
herbicidal effect rating, ORYSAT (rice tolerance) ([6]; 0.0313 kg/ha): 2.0
herbicidal effect rating, ORYSAT (rice tolerance) ([6]; 0.0625 kg/ha): 3.0
herbicidal effect rating, ORYSAT (rice tolerance) ([6]; 0.1250 kg/ha): 4.0
herbicidal effect rating, ORYSAT (rice tolerance) ([6]; 0.2500 kg/ha): 5.0
herbicidal effect rating, ORYSAT (rice tolerance) ([6]; 0.5000 kg/ha): 7.0
herbicidal effect rating, MOOVA ([7]; 0.0313 kg/ha): 9.0
herbicidal effect rating, MOOVA ([7]; 0.0625 kg/ha): 9.0
herbicidal effect rating, MOOVA ([7]; 0.1250 kg/ha): 9.0
herbicidal effect rating, MOOVA ([7]; 0.2500 kg/ha): 9.0
herbicidal effect rating, MOOVA ([7]; 0.5000 kg/ha): 9.0
herbicidal effect rating, ECHORC ([8]; 0.0313 kg/ha): 9.0
herbicidal effect rating, ECHORC ([8]; 0.0625 kg/ha): 9.0
herbicidal effect rating, ECHORC ([8]; 0.1250 kg/ha): 9.0
herbicidal effect rating, ECHORC ([8]; 0.2500 kg/ha): 9.0
herbicidal effect rating, ECHORC ([8]; 0.5000 kg/ha): 9.0
herbicidal effect rating, SAGPY (Sagittaria pygmaea, L. [9]; Rate 0.0313 kg/ha): 2.0
herbicidal effect rating, SAGPY (Sagittaria pygmaea, L. [9]; Rate 0.0625 kg/ha): 2.0
herbicidal effect rating, SAGPY (Sagittaria pygmaea, L. [9]; Rate 0.1250 kg/ha): 4.0
herbicidal effect rating, SAGPY (Sagittaria pygmaea, L. [9]; Rate 0.2500 kg/ha): 6.0
herbicidal effect rating, SAGPY (Sagittaria pygmaea, L. [9]; Rate 0.5000 kg/ha): 8.0
herbicidal effect rating, ECHORC ([10]; Rate 0.0313 kg/ha): 2.0
herbicidal effect rating, ECHORC ([10]; Rate 0.0625 kg/ha): 7.0
herbicidal effect rating, ECHORC ([10]; Rate 0.1250 kg/ha): 6.0
herbicidal effect rating, ECHORC ([10]; Rate 0.2500 kg/ha): 9.0
herbicidal effect rating, ECHORC ([10]; Rate 0.5000 kg/ha): 9.0
herbicidal effect rating, MOOVA ([11]; Rate 0.0313 kg/ha): 9.0
herbicidal effect rating, MOOVA ([11]; Rate 0.0625 kg/ha): 9.0
herbicidal effect rating, MOOVA ([11]; Rate 0.1250 kg/ha): 9.0
herbicidal effect rating, MOOVA ([11]; Rate 0.2500 kg/ha): 9.0
herbicidal effect rating, MOOVA ([11]; Rate 0.5000 kg/ha): 9.0
herbicidal effect rating, CYPSE ([12]; Rate 0.0313 kg/ha): 0.0
herbicidal effect rating, CYPSE ([12]; Rate 0.0625 kg/ha): 0.0
herbicidal effect rating, CYPSE ([12]; Rate 0.1250 kg/ha): 0.0
herbicidal effect rating, CYPSE ([12]; Rate 0.2500 kg/ha): 0.0
herbicidal effect rating, CYPSE ([12]; Rate 0.5000 kg/ha): 0.0

COc1ccc(I)cc1-c1nsc2ccc(-n3c(=O)cc(C(F)(F)F)n(C)c3=O)cc12 [Example 448, 2,4(1H,3H)-Pyrimidinedione, 3-[3-(5-iodo-2-methoxyphenyl)-1,2-benzisothiazol-5-yl]-1-methyl-6-(trifluoromethyl)-]
herbicidal effect rating, CYPIR (Cyperus iria [1]; Rate 0.1250 kg/ha): 7.0
herbicidal effect rating, CYPIR (Cyperus iria [1]; Rate 0.2500 kg/ha): 9.0
CYPSE ([2]; 0.0320 kg/ha): 4.5
CYPSE ([2]; 0.0620 kg/ha): 4.5
CYPSE ([2]; 0.1250 kg/ha): 4.5
CYPSE ([2]; 0.2500 kg/ha): 6.5
CYPIR (Cyperus iria [3]; 0.0320 kg/ha): 8.5
CYPIR (Cyperus iria [3]; 0.0620 kg/ha): 9.0
CYPIR (Cyperus iria [3]; 0.1250 kg/ha): 9.0
CYPIR (Cyperus iria [3]; 0.2500 kg/ha): 9.0
herbicidal effect rating, ORYSAT (rice tolerance) ([4]; Rate 0.0620 kg/ha): 0.0
herbicidal effect rating, ORYSAT (rice tolerance) ([4]; Rate 0.1250 kg/ha): 1.0
herbicidal effect rating, ORYSAT (rice tolerance) ([4]; Rate 0.2500 kg/ha): 2.0
SAGPY (Sagittaria pygmaea, L. [5]; 0.0320 kg/ha): 0.0
SAGPY (Sagittaria pygmaea, L. [5]; 0.0620 kg/ha): 1.5
SAGPY (Sagittaria pygmaea, L. [5]; 0.1250 kg/ha): 2.5
SAGPY (Sagittaria pygmaea, L. [5]; 0.2500 kg/ha): 3.5
ORYSAT ([6]; 0.0320 kg/ha): 3.5
ORYSAT ([6]; 0.0620 kg/ha): 4.0
ORYSAT ([6]; 0.1250 kg/ha): 4.0
ORYSAT ([6]; 0.2500 kg/ha): 4.0
MOOVA ([7]; 0.0320 kg/ha): 9.0
MOOVA ([7]; 0.0620 kg/ha): 9.0
MOOVA ([7]; 0.1250 kg/ha): 9.0
MOOVA ([7]; 0.2500 kg/ha): 9.0
ECHORC ([8]; 0.0320 kg/ha): 9.0
ECHORC ([8]; 0.0620 kg/ha): 9.0
ECHORC ([8]; 0.1250 kg/ha): 9.0
ECHORC ([8]; 0.2500 kg/ha): 9.0
herbicidal effect rating, SAGPY (Sagittaria pygmaea, L. [9]; Rate 0.0620 kg/ha): 0.0
herbicidal effect rating, SAGPY (Sagittaria pygmaea, L. [9]; Rate 0.1250 kg/ha): 0.0
herbicidal effect rating, SAGPY (Sagittaria pygmaea, L. [9]; Rate 0.2500 kg/ha): 0.0
herbicidal effect rating, ECHORC ([10]; Rate 0.0620 kg/ha): 0.0
herbicidal effect rating, ECHORC ([10]; Rate 0.1250 kg/ha): 1.0
herbicidal effect rating, ECHORC ([10]; Rate 0.2500 kg/ha): 2.0
herbicidal effect rating, MOOVA ([11]; Rate 0.0620 kg/ha): 0.0
herbicidal effect rating, MOOVA ([11]; Rate 0.1250 kg/ha): 1.0
herbicidal effect rating, MOOVA ([11]; Rate 0.2500 kg/ha): 4.0
herbicidal effect rating, CYPSE ([12]; Rate 0.0620 kg/ha): 0.0
herbicidal effect rating, CYPSE ([12]; Rate 0.1250 kg/ha): 0.0
herbicidal effect rating, CYPSE ([12]; Rate 0.2500 kg/ha): 0.0
